Measurements taken from paper PMC3853024, “Aromatase inhibitor treatment with an intravaginal device and its effect on pre-ovulatory ovarian follicles in a bovine model” (Reproductive Biology and Endocrinology : RB&E, 2013).

Legend:
[1] = tested on: plasma progesterone; test: Plasma progesterone concentration (radioimmunoassay) after post-treatment ovulation; assay type: in vivo, cattle (Hereford-cross beef heifers); conditions: first 12 days post-ovulation, n=15, P=0.01
Protocol: Heifers in which a CL was detected were given two luteolytic doses of PGF (12 h apart) and monitored by ultrasonography for ovulation. Five to eight days later, the two largest ovarian follicles were ablated by transvaginal ultrasound-guided follicular aspiration to synchronize follicular wave emergence which was expected to occur 1 to 1.5 days later. Prostaglandin (500 μg cloprostenol, Estrumate, Schering-Plough Animal Health, Pointe-Claire, QC, Canada) was given intramuscularly at 60 and 72 h after follicular ablation to induce regression of the CL and shift from a non-ovulatory to an ovulatory follicular wave. […] Devices were inserted on Day 1 and were kept in place until Day 7 or until ovulation was detected, which ever occurred first. […]
Plasma progesterone concentrations were determined in duplicate using a commercial solid-phase radioimmunoassay kit (Coat-A-Count; Diagnostic Products Corporation, Los Angeles, CA, USA). […] All samples were analyzed in a single assay; the intra-assay coefficients of variation were 9.7% and 5.8 % for low- (mean, 1.7 ng/mL) and high-reference samples (mean, 18.7 ng/mL), respectively. […]

[2] = tested on: ovarian function; set-up: method as in PMID 21696721, PMID 22541551; conditions: cited from earlier work
[3] = single intravenous dose Day 3 post-ovulation, or 3-day regimen Days 1–3, 3–5 or 5–7 post-ovulation

N#Cc1ccc(C(c2ccc(C#N)cc2)n2cncn2)cc1 [Letrozole]
Plasma progesterone concentrations versus control [1]: higher
Corpora lutea size following treatment ([2]; heifers treated with letrozole for 3 days): larger corpora lutea
Circulating FSH concentration [2, 3]: did not induce an elevation
Mean plasma luteinizing hormone (LH) concentrations [2, 3]: did increase
